Test [1] deals with muscarinic acetylcholine receptors. Nature of the test: inhibition of specific binding of 3H-Oxotremorine-M (3H-Oxo) to rat cortex. On the set-up: species or system rat (male Wistar). The conditions noted are these: 3H-Oxotremorine 1.0 nM, 30 min, 25° C., pH 7.4. An excerpt:
The pharmacological properties of the compounds of the invention can be illustrated by determining their capability to inhibit the specific binding of ^3 H-Oxotremorine-M (^3 H-Oxo). Birdsdall N. J. M., Hulme E. C., and Burgen A. S. V. (1980). "The Character of Muscarinic Receptors in Different Regions of the Rat Brain". Proc. Roy. Soc. London (Series B) 207,1.
^3 H-oxo labels muscarinic receptor in the CNS (with a preference for agonist domains of the receptors). Three different sites are labeled by ^3 H-Oxo. […] Using the present experimental conditions only the high and medium affinity sites are determined.
The inhibitory effects of compounds on ^3 H-oxo binding reflects the affinity for muscarinic acetylcholine receptors.
All preparations are performed at 0°-4° C. unless otherwise indicated. Fresh cortex (0.1-1 g) from male Wistar rats (150-250 g) is homogenized for 5-10 s in 10 mL […] Hepes pH: 7.4, with an Ultra-Turrax homogenizer. The homogenizer is rinsed with 10 mL of buffer and the combined suspension centrifuged for 15 min. at 40,000×g. The pellet is washed three times with buffer. In each step the pellet is homogenized as before in 2×10 mL of buffer and centrifuged for 10 min. at 40,000×g.
The final pellet is homogenized in 20 mM Hepes pH: 7.4 (100 mL per g of original tissue) and used for binding assay. Aliquots of 0.5 mL is added 25 μL of test solution and 25 μL of ^3 H-Oxotremorine (1.0 nM, final concentration) mixed and incubated for 30 min. at 25° C. Non-specific binding is determined in triplicate using arecoline (1 μg/mL, final concentration) as the test substance. After incubation samples are added 5 mL of ice-cold buffer and poured directly onto Whatman GF/C glass fiber filters under suction and immediately washed 2 times with 5 mL of ice-cold buffer. The amount of radioactivity on the filters are determined by conventional liquid scintillation counting. Specific binding is total binding minus non specific binding.
Test substances are dissolved in 10 mL water (if necessary heated on a steam-bath for less than 5 min.) at a concentration of 2.2 mg/mL. 25-75% inhibition of specific binding must be obtained before calculation of IC50. The test value will be given as IC50 (the concentration (nM) of the test substance which inhibits the specific binding of ^3 H-oxo by 50%). IC50 =(applied test substance concentration) x([…])nM where Co is specific binding in control assays and Cx is the specific binding in the test assay. (The calculations assume normal mass-action kinetics).

The target in test [2] is muscarinic receptor in the CNS. The conditions noted are these: read-out: affinity of site labeled by ^3 H-Oxo, cited from earlier work.

Molecules are shown by their SMILES. Read-outs that look alike come from different tables or passages of the source.

What is called IC50 is the point on the concentration scale where inhibition reaches its midpoint. The molecule `CCCCCCOc1nsnc1C1CC2CCC1N(C)C2` (single isomer, unassigned) [Compound 7, ENDO 2-Aza-6-(4-hexyloxy-1,2,5-thiadiaz-3-yl)-2-methyl-bicyclo[2.2.2]octane] gave a half-inhibitory concentration (IC50) in test [1] of 4.8 nM. Molecule `CCCCCCOc1nsnc1C1CC2CCC1N(C)C2` (single isomer, unassigned) [Compound 8, EXO 2-Aza-6-(4-hexyloxy-1,2,5-thiadiaz-3-yl)-2-methyl-bicyclo[2.2.2]octane] registered an IC50 in test [1] of 277 nM. For the molecule `CC(C)CCCSc1nsnc1C1CC2CCC1NC2` (stereo not drawn) [Compound 17, EXO 2-Aza-6-(4-((4-methylpentyl)thio)-1,2,5-thiadiaz-3-yl)-bicyclo[2.2.2]octane], the IC50 in test [1] amounted to 612 nM. On the same count and under the same terms, next, `CC(C)CCCSc1nsnc1C1CC2CCC1NC2` (stereo not drawn) [Compound 18, ENDO 2-Aza-6-(4-((4-methylpentyl)thio)-1,2,5-thiadiaz-3-yl)-bicyclo[2.2.2]octane]: 17 nM.

On to `FC(F)(F)CCCSc1nsnc1C1CC2CCC1NC2` (stereo not drawn) [Compound 20, ENDO 2-Aza-6-(4-((4,4,4-trifluorobutyl)thio)-1,2,5-thiadiaz-3-yl)-bicyclo[2.2.2]octane], for which the IC50 in test [1] amounted to 4.8 nM. In test [1], `FC(F)(F)c1ccc(CSc2nsnc2C2CC3CCC2NC3)cc1` (stereo not drawn) [Compound 22, EXO 2-Aza-6-(4-(((4-trifluoromethyl)phenyl)methylthio)-1,2,5-thiadiaz-3-yl)-bicyclo[2.2.2]octane] registered an IC50 of 680 nM.

On to `N#Cc1ccc(CSc2nsnc2C2CC3CCC2NC3)s1` (stereo not drawn) [Compound 25, ENDO 2-Aza-6-(4-((5-cyanothien-2-yl)methylthio)-1,2,5-thiadiaz-3-yl)-bicyclo[2.2.2]octane], for which, in test [1], the half-maximal inhibitory concentration (IC50) is 5.4 nM. `N#Cc1ccc(CSc2nsnc2C2CC3CCC2NC3)s1` (stereo not drawn) [Compound 26, EXO 2-Aza-6-(4-((5-cyanothien-2-yl)methylthio)-1,2,5-thiadiaz-3-yl)-bicyclo[2.2.2]octane] yielded an IC50 in test [1] of 31 nM.

In test [1], `CCCCCCSc1nsnc1C1CC2CCC1NC2` (stereo not drawn) [Compound 27, EXO 2-Aza-6-(4-hexylthio-1,2,5-thiadiaz-3-yl)-bicyclo[2.2.2]octane] displayed an IC50 of 3 nM.

`CCCCCCSc1nsnc1C1CC2CCC1NC2` (stereo not drawn) [Compound 28, EXO 2-Aza-6-(4-hexylthio-1,2,5-thiadiaz-3-yl)-bicyclo[2.2.2]octane] returned a 50% inhibitory concentration (IC50) in test [1] of 86 nM. This IC50 lies about 29-fold higher than the previous one. On the same count and under the same terms, next, `CCCCCOc1nsnc1C1CC2CCC1NC2` (stereo not drawn) [Compound 30, ENDO 2-aza-6-(4-pentoxy-1,2,5-thiadiaz-3-yl)-bicyclo[2.2.2]octane]: 5.9 nM.

With `CCCCCOc1nsnc1C1CC2CCC1NC2` (stereo not drawn) [Compound 31, EXO 2-aza-6-(4-pentoxy-1,2,5-thiadiaz-3-yl)-bicyclo[2.2.2]octane], the IC50 in test [1] came to 161 nM. Compared with the last molecule, the IC50 is about 27-fold higher. Molecule `FC(F)(F)c1ccc(COc2nsnc2C2CC3CCC2NC3)cc1` (stereo not drawn) [Compound 32, EXO 2-Aza-6-(4-((4-trifluoromethylphenyl)methoxy)-1,2,5-thiadiaz-3-yl)-bicyclo[2.2.2]octane] gave an IC50 in test [1] of 335 nM. This IC50 lies about 2.1-fold higher than the previous one. The molecule `FC(F)(F)c1ccc(COc2nsnc2C2CC3CCC2NC3)cc1` (stereo not drawn) [Compound 33, EXO 2-Aza-6-(4-((4-trifluoromethylphenyl)methoxy)-1,2,5-thiadiaz-3-yl)-bicyclo[2.2.2]octane] came in with an IC50 in test [1] of 208 nM.

In the case of `C[N+](C)(C)CC#CCN1CCCC1=O` [^3 H-Oxo, ^3 H-Oxotremorine-M], the Kd is 1.8 nM in test [2] (first of three sites (high affinity)); 20 nM in test [2] (second of three sites (medium affinity)); 3000 nM in test [2] (third of three sites, not determined under the present experimental conditions).

Source of the values: patent US5834458A, “Heterocyclic compounds and their use” (Eli Lilly and Company, priority 1996, dated 1998).
